US4138423A, “N-dithio carbamoyl oximes” (priority 1976, dated 1979)
In brackets after ≈: the same amount, converted by molar mass.

Legend:
[1] = peroral toxicity to mammals (rat); settings: in vivo, po, peroral, Table I, read-out: A.O. Rat. LD50
Description: (§1) Certain of these compositions were also evaluated to determine their peroral toxicity to mammals. The animal selected for this experiment was the rat. The test results obtained are expressed in terms of the number of milligrams of compositions per kilogram of weight of the animal required to achieve a mortality rate of 50 percent (LD50).

two-spotted mite = test: Mite Foliage Spray Test; settings: Tetranychus urticae, foliar, read-out: Mite LD50
Description: (§2) The test procedures were as follows:
Adults and nymphal stages of the two-spotted mite (Tetranychus urticae Koch), reared on Tendergreen bean plants at 80±5° percent relative humidity, were the test organisms. Infested leaves from a stock culture were placed on the primary leaves of two bean plants six to eight inches in height, growing in a two- and-a-half inch clay pot. 150-200 mites, a sufficient number for testing, transferred from the excised leaves to the fresh plants in a period of twenty four hours. Following the twenty four hour transfer period, the excised leaves were removed from the infested plants. […] The sprayed plants were held at 80±5 percent relative humidity for six days, after which a mortality count of motile forms was made. […] Any individual which was capable of locomotion upon prodding was considered living.

bean aphid = test: whole plant or invertebrate; settings: foliar, read-out: Aphid LD50
Mexican bean beetle = test: Mexican Bean Beetle Leaf Spray Test; settings: Epilachna varivestis, read-out: Beetle LD50
Description: as §2
The closed dishes were labeled and held at a temperature of 80±5° F. for three days. Although the larvae could easily consume the leaf within 24 to 48 hours, no more food was added.

house flies = test: Fly Bait Test; settings: Musca domestica, read-out: Fly LD50
Description: The test concentrations in parts per million by weight employed in the tests described hereinbelow were obtained by appropriate dilutions of the stock suspension with water. The test procedures were as follows:
Four to six day old adult house flies (Musca domestica, L.) reared according to the specifications of the Chemical Specialities Manufacturing Association (Blue Book, McNair-Dorland Co., N.Y. 1954; pages 243-244, 261) under controlled conditions of 80±5° F. and 50±5 percent relative humidity, were the test insects. The flies were immobilized by anesthetizing with carbon dioxide and twenty five immobilized individuals,males and females, were transferred to a cage consisting of a standard food strainer about five inches in diameter which was inverted over a wrapping-paper-covered surface. […] Ten milliliters of the test formulation were added to a souffle cup containing a one-inch square of an absorbent cotton pad. This bait cup was introduced and centered on the blotting paper under the food strainer prior to admitting the anesthetized flies. The caged flies were allowed to feed on the bait for twenty four hours, at a temperature of 80±5° F. and the relative humidity of 50±5 percent.
(§3) The test procedures described above were employed in these experiments in order to determine the LD50 (number of parts per million of active ingredients required to achieve fifty percent mortality of the insects tested) for each of the compositions tested.

southern armyworm = test: Southern Armyworm Leaf Spray Test; settings: Spodoptera eridania, read-out: Armyworm LD50
Description: The thus-prepared stock suspension contained 0.5 percent by weight of compound. The test concentrations in parts per million by weight employed in the tests described hereinbelow were obtained by appropriate dilutions of the stock suspension with water. The test procedures were as follows:
Larvae of the southern armyworm (Prodenia eridania, (Cram.)), reared on Tendergreen bean plants at a temperature of 80±5° F. and a relative humidity of 50±5 percent, constituted the test insects.
Potted Tendergreen bean plants of standard height and age were placed on a revolving turntable and sprayed with 100-110 milliliters of test compound formulation by use of a DeVilbiss spray gun set at 10 psig air pressure. This application, which lasted 25 seconds, was sufficient to wet plants to run-off. As a control, 100-110 milliliters of a water-acetone-emulsifier solution containing no test compound were also sprayed on infested plants. When dry, the paired leaves were separated and each one was placed in a 9 centimeter Petri dish lined with moistened filter paper. Five randomly selected larvae were introduced into each dish and the dishes were closed. The closed dishes were labeled and held at 80-85° F. for three days. Although the larvae could easily consume the whole leaf within twenty-four hours, no more food was added. Larvae which were unable to move the length of the body, even upon stimulation by prodding, were considered dead. Percent mortality was recorded for various concentration levels.
as §3

rat = test: peroral toxicity to mammals (rat); settings: in vivo, po
Description: as §1

[2] = test system: cotton, tomatoes, beans and corn; test: phytotoxicity to crops; settings: compared with N-methyl carbamate compounds

Q: Which LD50 [1] does the source give for `CSC(C)=NOC(=O)N(C)SSc1ccc(C(C)(C)C)cc1` [XI] here?
A: 180 mg/kg

Q: Which LC50 (two-spotted mite) does the source give for `CSC(C)=NOC(=O)N(C)SSC(C)(C)C` [Example II (Table II)] here?
A: > 500 µg/mL

Q: What about the LC50 (bean aphid) of the same molecule?
A: 1.3 µg/mL (≈ 4.6 µM)

Q: With `CSC(C)=NOC(=O)N(C)SSc1ccc(C)cc1` [X, 1-Methylthioacetaldehyde O-[N-methyl-N-(4-methylphenylthiosulfenyl)carbamoyl]oxime] as the molecule, how does the LD50 [1] read?
A: 63.5 mg/kg

Q: With `CC(=NOC(=O)N(C)SSC(C)(C)C)SCCC#N` [XIII] as the molecule, how does the LD50 [1] read?
A: 10 mg/kg

Q: For `CSC(C)=NOC(=O)N(C)SSc1ccc(Cl)cc1` [Example III, 1-Methylthioacetaldehyde O-[N-methyl-N-(4-chlorophenylthiosulfenyl)carbamoyl]oxime], which LD50 [1] is on record?
A: 160 mg/kg

Q: With `CSC(C)=NOC(=O)N(C)SSc1ccccc1` [IX, 1-Methylthioacetaldehyde O-[N-methyl-N-(phenylthiosulfenyl)carbamoyl]oxime] as the molecule, how does the LD50 [1] read?
A: 143 mg/kg

Q: What does the source list for `CC(=NOC(=O)N(C)SSC(C)(C)C)SC(C)C` [XII]?
A: LC50 (Mexican bean beetle): 31 µg/mL (≈ 99.8 µM); LD50 [1]: 30.8 mg/kg; LC50 (house flies): 42 µg/mL (≈ 135 µM); LC50 (southern armyworm): 35 µg/mL (≈ 113 µM)

Q: For `CSC(C)=NOC(=O)N(C)SSC(C)C` [XV], which LD50 [1] is on record?
A: 113 mg/kg

Q: For `CSC(C)(C)C=NOC(=O)N(C)SSc1ccc(Cl)cc1` [XIV], which LD50 [1] is on record?
A: 2 mg/kg

Q: For `CC(=NOC(=O)N(C)SSC(C)C)SCCC#N` [IV], which LD50 [1] is on record?
A: 14.1 mg/kg

Q: Which LC50 (two-spotted mite) does the source give for `CNC(=O)ON=C(C)SC` [Methomyl, reference compound] here?
A: > 500 µg/mL

Q: What about the LC50 (Mexican bean beetle) of the same molecule?
A: 70 µg/mL (≈ 432 µM)

Q: What about the “Rat LD50” value (rat) of the same molecule?
A: 48 mg/kg

Q: And the LC50 (house flies)?
A: 4 µg/mL (≈ 24.7 µM)

Q: And the “phytotoxicity to important economic crops” value [2]?
A: highly susceptible to phytotoxic injury

Q: What about the LC50 (southern armyworm) of the same molecule?
A: 11 µg/mL (≈ 67.8 µM)

Q: With `CC(=NOC(=O)N(C)SSC(C)(C)C)SC(C)C` [Example III (Table II)] as the molecule, how does the LC50 (two-spotted mite) read?
A: 125 µg/mL (≈ 403 µM)

Q: What about the LC50 (bean aphid) of the same molecule?
A: 9 µg/mL (≈ 29 µM)

Q: For `CSC(C)=NOC(=O)N(C)SSC1CCCCC1` [Example II, 1-Methylthioacetaldehyde O-[N-methyl-N-(cyclohexanethiosulfenyl)carbamoyl]oxime], which LD50 [1] is on record?
A: 101 mg/kg

Q: With `CSC(C)=NOC(=O)N(C)SSC(C)(C)C` [Example I, 1-Methylthioacetaldehyde O-[N-methyl-N-(2-methyl-2-propanethiosulfenyl)carbamoyl]oxime] as the molecule, how does the LC50 (Mexican bean beetle) read?
A: 40 µg/mL (≈ 142 µM)

Q: And the LD50 [1]?
A: 143 mg/kg

Q: And the LC50 (house flies)?
A: 4 µg/mL (≈ 14.2 µM)

Q: What about the LC50 (southern armyworm) of the same molecule?
A: 6 µg/mL (≈ 21.2 µM)
